Test results as given in article PMC5218480 (PLoS ONE, 2017).

Test system: MV-4-11 cells
Assay: Gene expression microarray analysis (Affymetrix PrimeView) and GSEA
Format: cell-based, human
Parameters: RFU PODN (11730768_x_at) / Fold change /veh PODN (11730768_x_at) / RFU LINC00158 (11744669_a_at) / Fold change /veh LINC00158 (11744669_a_at) / RFU DUSP10 (11751237_a_at) / Fold change /veh DUSP10 (11751237_a_at) / RFU ID3 (11757404_x_at) / Fold change /veh ID3 (11757404_x_at) / RFU PLEKHG5 (11737974_s_at) / Fold change /veh PLEKHG5 (11737974_s_at) / RFU LRRC4B (11730491_at) / Fold change /veh LRRC4B (11730491_at) / RFU GIMAP4 (11747438_a_at) / Fold change /veh GIMAP4 (11747438_a_at) / RFU KRT8 (11758183_x_at) / Fold change /veh KRT8 (11758183_x_at) / RFU CNN1 (11734310_a_at) / Fold change /veh CNN1 (11734310_a_at) / RFU VPS37D (11726825_at) / Fold change /veh VPS37D (11726825_at) / RFU C10orf10 (11716522_x_at) / Fold change /veh C10orf10 (11716522_x_at) / RFU KIR2DL2 /// KIR2DL4 /// KIR2DL5A /// KIR2DL5B /// KIR2DS1 /// KIR2DS2 /// KIR2DS3 /// KIR2DS4 /// KIR3DL3 /// KIR3DL3 /// KIR3DS1 (11738374_at) / Fold change /veh KIR2DL2 /// KIR2DL4 /// KIR2DL5A /// KIR2DL5B /// KIR2DS1 /// KIR2DS2 /// KIR2DS3 /// KIR2DS4 /// KIR3DL3 /// KIR3DL3 /// KIR3DS1 (11738374_at) / RFU C1QL1 (11718748_at) / Fold change /veh C1QL1 (11718748_at) / RFU TMPRSS4 (11747572_a_at) / Fold change /veh TMPRSS4 (11747572_a_at) / RFU HAMP (11756126_x_at) / Fold change /veh HAMP (11756126_x_at) / RFU RNFT2 (11725882_a_at) / Fold change /veh RNFT2 (11725882_a_at) / RFU NR4A2 (11747474_a_at) / Fold change /veh NR4A2 (11747474_a_at) / RFU ABCC12 (11746883_a_at) / Fold change /veh ABCC12 (11746883_a_at) / RFU TMEM136 (11760407_x_at) / Fold change /veh TMEM136 (11760407_x_at) / RFU CLDN22 /// WWC2 (11732394_at) / Fold change /veh CLDN22 /// WWC2 (11732394_at) / RFU HLA-DPB1 (11760878_x_at) / Fold change /veh HLA-DPB1 (11760878_x_at) / RFU SPINT1 (11716480_a_at) / Fold change /veh SPINT1 (11716480_a_at) / RFU GAP43 (11754022_s_at) / Fold change /veh GAP43 (11754022_s_at) / RFU A4GNT (11735810_at) / Fold change /veh A4GNT (11735810_at) / RFU PRB3 (11715151_x_at) / Fold change /veh PRB3 (11715151_x_at) / RFU TUBB4B (11761932_at) / Fold change /veh TUBB4B (11761932_at) / RFU CAPN14 (11732068_a_at) / Fold change /veh CAPN14 (11732068_a_at) / RFU TMCC2 (11721928_a_at) / Fold change /veh TMCC2 (11721928_a_at) / RFU IRGQ (11745062_a_at) / Fold change /veh IRGQ (11745062_a_at) / RFU FAM174B (11720279_a_at) / Fold change /veh FAM174B (11720279_a_at) / RFU TMPRSS4 (11748680_a_at) / Fold change /veh TMPRSS4 (11748680_a_at) / RFU FAM212B (11763350_a_at) / Fold change /veh FAM212B (11763350_a_at) / RFU PLEKHG5 (11743358_a_at) / Fold change /veh PLEKHG5 (11743358_a_at) / RFU ZSCAN30 (11745921_a_at) / Fold change /veh ZSCAN30 (11745921_a_at) / RFU CMKLR1 (11741424_a_at) / Fold change /veh CMKLR1 (11741424_a_at) / RFU LOC101060620 /// MAPK8IP1 (11723275_at) / Fold change /veh LOC101060620 /// MAPK8IP1 (11723275_at) / RFU SPTSSB (11747773_x_at) / Fold change /veh SPTSSB (11747773_x_at) / RFU PRSS12 (11739890_at) / Fold change /veh PRSS12 (11739890_at) / RFU BIN1 (11741810_x_at) / Fold change /veh BIN1 (11741810_x_at) / RFU WNT11 (11732464_a_at) / Fold change /veh WNT11 (11732464_a_at) / RFU C10orf10 (11716521_a_at) / Fold change /veh C10orf10 (11716521_a_at) / RFU C5orf56 (11738089_at) / Fold change /veh C5orf56 (11738089_at) / RFU CYB561 (11721691_x_at) / Fold change /veh CYB561 (11721691_x_at) / RFU ANKRD19P (11752326_a_at) / Fold change /veh ANKRD19P (11752326_a_at) / RFU OR2T12 /// OR2T33 /// OR2T8 (11738714_s_at) / Fold change /veh OR2T12 /// OR2T33 /// OR2T8 (11738714_s_at) / RFU VCAN (11748164_a_at) / Fold change /veh VCAN (11748164_a_at) / RFU JSRP1 (11732532_at) / Fold change /veh JSRP1 (11732532_at) / RFU KRTAP10-11 (11738290_x_at) / Fold change /veh KRTAP10-11 (11738290_x_at) / RFU MYO3A (11730013_a_at) / Fold change /veh MYO3A (11730013_a_at) / RFU EBF3 (11725865_a_at) / Fold change /veh EBF3 (11725865_a_at) / RFU CAMK2N1 (11719241_x_at) / Fold change /veh CAMK2N1 (11719241_x_at) / RFU C5orf56 (11738088_a_at) / Fold change /veh C5orf56 (11738088_a_at) / RFU OLFML3 (11715873_a_at) / Fold change /veh OLFML3 (11715873_a_at) / RFU LOC100653217 /// NTM (11731650_a_at) / Fold change /veh LOC100653217 /// NTM (11731650_a_at) / RFU MAPK11 (11762145_a_at) / Fold change /veh MAPK11 (11762145_a_at) / RFU FIZ1 (11724087_x_at) / Fold change /veh FIZ1 (11724087_x_at) / RFU OASL (11726364_x_at) / Fold change /veh OASL (11726364_x_at) / RFU SOX15 (11748057_x_at) / Fold change /veh SOX15 (11748057_x_at) / RFU CD79A (11719716_a_at) / Fold change /veh CD79A (11719716_a_at) / RFU HIST1H1D (11736915_at) / Fold change /veh HIST1H1D (11736915_at) / RFU CASKIN2 (11723855_a_at) / Fold change /veh CASKIN2 (11723855_a_at) / RFU LOC730098 (11760151_x_at) / Fold change /veh LOC730098 (11760151_x_at) / RFU OR4N2 (11742367_at) / Fold change /veh OR4N2 (11742367_at) / RFU PRRT2 (11749266_a_at) / Fold change /veh PRRT2 (11749266_a_at) / RFU SNX32 (11753110_a_at) / Fold change /veh SNX32 (11753110_a_at) / RFU CDHR5 (11726645_a_at) / Fold change /veh CDHR5 (11726645_a_at) / RFU RCAN1 (11760418_a_at) / Fold change /veh RCAN1 (11760418_a_at) / RFU FAM167A (11723789_a_at) / Fold change /veh FAM167A (11723789_a_at) / RFU FAM26E (11764081_at) / Fold change /veh FAM26E (11764081_at) / RFU ISYNA1 (11749810_s_at) / Fold change /veh ISYNA1 (11749810_s_at) / RFU ACY1 (11761880_at) / Fold change /veh ACY1 (11761880_at) / RFU 11764098_at / Fold change /veh 11764098_at / RFU SAMD14 (11745864_x_at) / Fold change /veh SAMD14 (11745864_x_at) / RFU NPB (11741838_a_at) / Fold change /veh NPB (11741838_a_at) / RFU TMPRSS6 (11731388_a_at) / Fold change /veh TMPRSS6 (11731388_a_at) / RFU KRTAP10-2 (11738614_at) / Fold change /veh KRTAP10-2 (11738614_at) / RFU ARHGAP8 /// PRR5-ARHGAP8 (11727945_x_at) / Fold change /veh ARHGAP8 /// PRR5-ARHGAP8 (11727945_x_at) / RFU KRTAP5-7 /// NADSYN1 (11734609_at) / Fold change /veh KRTAP5-7 /// NADSYN1 (11734609_at) / RFU RASL12 (11751679_a_at) / Fold change /veh RASL12 (11751679_a_at) / RFU CDKN2B (11736163_a_at) / Fold change /veh CDKN2B (11736163_a_at) / RFU PRF1 (11729649_at) / Fold change /veh PRF1 (11729649_at) / RFU, ZNF638 /// ZNF638-IT1 / Fold change vs veh, ZNF638 /// ZNF638-IT1 / RFU, PANK3 / Fold change vs veh, PANK3 / RFU, SH3YL1 / Fold change vs veh, SH3YL1 / RFU, ZEB2 / Fold change vs veh, ZEB2 / RFU, NRIP1 / Fold change vs veh, NRIP1 / RFU, PTTG1IP / Fold change vs veh, PTTG1IP / RFU, CAPN2 / Fold change vs veh, CAPN2 / RFU, MED14 / Fold change vs veh, MED14 / RFU, SNORA58 / Fold change vs veh, SNORA58 / RFU, C1orf63 / Fold change vs veh, C1orf63 / RFU, LRRFIP1 / Fold change vs veh, LRRFIP1 / RFU, NDUFAF7 / Fold change vs veh, NDUFAF7 / RFU, SLC12A2 / Fold change vs veh, SLC12A2 / RFU, IBTK / Fold change vs veh, IBTK / RFU, ESF1 / Fold change vs veh, ESF1 / Fold change vs veh, TMEM50B / RFU, TAOK1 / Fold change vs veh, TAOK1 / RFU, ACBD3 / Fold change vs veh, ACBD3 / RFU, TMA16 / Fold change vs veh, TMA16 / RFU, RWDD3 / Fold change vs veh, RWDD3 / RFU, BCAT1 / Fold change vs veh, BCAT1 / RFU, EDEM3 / Fold change vs veh, EDEM3 / RFU, TMEM33 / Fold change vs veh, TMEM33 / RFU, WDR75 / Fold change vs veh, WDR75 / RFU, AHCTF1 / Fold change vs veh, AHCTF1 / RFU, TFRC / Fold change vs veh, TFRC / RFU, ZDHHC17 / Fold change vs veh, ZDHHC17 / RFU, NOM1 / Fold change vs veh, NOM1 / RFU, ARL8B / Fold change vs veh, ARL8B / RFU, ZBTB11 / Fold change vs veh, ZBTB11 / RFU, TAMM41 / Fold change vs veh, TAMM41 / RFU, KIAA1704 /// LOC100996395 / Fold change vs veh, KIAA1704 /// LOC100996395 / RFU, ING1 / Fold change vs veh, ING1 / RFU, TRMT61B / Fold change vs veh, TRMT61B / RFU, FUBP3 / Fold change vs veh, FUBP3 / RFU, TP53 / Fold change vs veh, TP53 / RFU, TNKS2 / Fold change vs veh, TNKS2 / RFU, ZFP14 / Fold change vs veh, ZFP14 / RFU, ACTR2 / Fold change vs veh, ACTR2 / RFU, PPP3R1 / Fold change vs veh, PPP3R1 / RFU, PIK3R1 / Fold change vs veh, PIK3R1 / RFU, HNRNPA1 / Fold change vs veh, HNRNPA1 / RFU, RNF170 / Fold change vs veh, RNF170 / RFU, ZNF28 / Fold change vs veh, ZNF28 / RFU, RNGTT / Fold change vs veh, RNGTT / RFU, OGT / Fold change vs veh, OGT / RFU, BRD1 / Fold change vs veh, BRD1 / RFU, MARS / Fold change vs veh, MARS / RFU, ZNF655 / Fold change vs veh, ZNF655 / RFU, FAHD1 / Fold change vs veh, FAHD1 / RFU, BDP1 / Fold change vs veh, BDP1 / RFU, LRRCC1 / Fold change vs veh, LRRCC1 / RFU, ARID1A / Fold change vs veh, ARID1A / RFU, ZNF146 / Fold change vs veh, ZNF146 / RFU, ZNF330 / Fold change vs veh, ZNF330 / RFU, GPN3 / Fold change vs veh, GPN3 / RFU, C9orf123 / Fold change vs veh, C9orf123 / RFU, N4BP2L2 / Fold change vs veh, N4BP2L2 / RFU, ARFIP1 / Fold change vs veh, ARFIP1 / RFU, FAM179B / Fold change vs veh, FAM179B / RFU, BCL10 / Fold change vs veh, BCL10 / RFU, UHRF1BP1L / Fold change vs veh, UHRF1BP1L / RFU, BET1 / Fold change vs veh, BET1 / RFU, CNOT2 / Fold change vs veh, CNOT2 / RFU, ZNF268 / Fold change vs veh, ZNF268 / Fold change vs veh, ZNF507 / RFU, DGCR2 / Fold change vs veh, DGCR2 / RFU, WDSUB1 / Fold change vs veh, WDSUB1 / Fold change vs veh, HSP90B1 /// MIR3652 / RFU, ADSS / Fold change vs veh, ADSS / RFU, GK / Fold change vs veh, GK / RFU, ZNF148 / Fold change vs veh, ZNF148 / RFU, TAF9 / Fold change vs veh, TAF9 / RFU, SLC1A5 / Fold change vs veh, SLC1A5 / RFU, SLMO2 / Fold change vs veh, SLMO2 / RFU, ABCC4 / Fold change vs veh, ABCC4 / RFU, LOC101060439 /// RAP1B / Fold change vs veh, LOC101060439 /// RAP1B / RFU, RFX7 / Fold change vs veh, RFX7 / RFU, GTPBP10 / Fold change vs veh, GTPBP10 / RFU, CNEP1R1 / Fold change vs veh, CNEP1R1 / RFU, BIVM-ERCC5 /// ERCC5 / Fold change vs veh, BIVM-ERCC5 /// ERCC5 / RFU, ILF3 / Fold change vs veh, ILF3 / RFU 11762660_at / Fold change /veh 11762660_at / RFU VCAN (11757783_s_at) / Fold change /veh VCAN (11757783_s_at) / RFU DDX43 (11728927_at) / Fold change /veh DDX43 (11728927_at) / RFU KRT8 (11758188_x_at) / Fold change /veh KRT8 (11758188_x_at) / RFU NKD1 (11759106_at) / Fold change /veh NKD1 (11759106_at) / RFU SRD5A1 (11742802_a_at) / Fold change /veh SRD5A1 (11742802_a_at) / RFU TPSAB1 /// TPSB2 (11721975_s_at) / Fold change /veh TPSAB1 /// TPSB2 (11721975_s_at) / RFU GSTM3 (11746129_a_at) / Fold change /veh GSTM3 (11746129_a_at) / RFU IL23R (11737362_x_at) / Fold change /veh IL23R (11737362_x_at) / RFU TMEM51 (11727254_a_at) / Fold change /veh TMEM51 (11727254_a_at) / RFU PIWIL2 (11732686_x_at) / Fold change /veh PIWIL2 (11732686_x_at) / RFU ORM1 (11744905_x_at) / Fold change /veh ORM1 (11744905_x_at) / RFU CCDC152 (11743942_at) / Fold change /veh CCDC152 (11743942_at) / RFU ECM1 (11717891_a_at) / Fold change /veh ECM1 (11717891_a_at) / RFU IL23R (11748794_a_at) / Fold change /veh IL23R (11748794_a_at) / RFU TNFAIP8L3 (11732012_x_at) / Fold change /veh TNFAIP8L3 (11732012_x_at) / RFU MBOAT4 (11741988_at) / Fold change /veh MBOAT4 (11741988_at) / RFU 11764193_at / Fold change /veh 11764193_at / RFU TMEM53 (11763286_at) / Fold change /veh TMEM53 (11763286_at) / RFU MAGEB2 (11727129_at) / Fold change /veh MAGEB2 (11727129_at) / RFU TMEM200A (11744735_a_at) / Fold change /veh TMEM200A (11744735_a_at) / RFU CCDC152 (11751479_a_at) / Fold change /veh CCDC152 (11751479_a_at) / RFU FAM211A (11726209_a_at) / Fold change /veh FAM211A (11726209_a_at) / RFU RGS16 (11746705_a_at) / Fold change /veh RGS16 (11746705_a_at) / RFU VCAN (11755009_s_at) / Fold change /veh VCAN (11755009_s_at) / RFU RHOB (11743442_s_at) / Fold change /veh RHOB (11743442_s_at) / RFU RGS16 (11720943_a_at) / Fold change /veh RGS16 (11720943_a_at) / RFU RGS16 (11720944_at) / Fold change /veh RGS16 (11720944_at) / RFU, VPS4B / Fold change vs veh, VPS4B / RFU, CREB1 / Fold change vs veh, CREB1 / RFU, DNAJC13 / Fold change vs veh, DNAJC13 / RFU, GNAQ / Fold change vs veh, GNAQ / RFU, CDK5R1 / Fold change vs veh, CDK5R1 / RFU, ZRANB3 / Fold change vs veh, ZRANB3 / RFU, CUL4A / Fold change vs veh, CUL4A / RFU, CCNY / Fold change vs veh, CCNY / RFU, UFL1 / Fold change vs veh, UFL1 / RFU, COG3 / Fold change vs veh, COG3 / RFU, DIAPH2 / Fold change vs veh, DIAPH2 / RFU, SKA2 / Fold change vs veh, SKA2 / RFU, AFF3 / Fold change vs veh, AFF3 / RFU, LMF1 / Fold change vs veh, LMF1 / RFU, IPO11 / Fold change vs veh, IPO11 / RFU, DFFB / Fold change vs veh, DFFB / RFU, FOXP1 / Fold change vs veh, FOXP1 / RFU, CARD8 / Fold change vs veh, CARD8 / RFU, STRN3 / Fold change vs veh, STRN3 / RFU, ADK / Fold change vs veh, ADK / RFU, RASSF2 / Fold change vs veh, RASSF2 / RFU, WIPF1 / Fold change vs veh, WIPF1 / RFU, LARP1B / Fold change vs veh, LARP1B / RFU, RASA1 / Fold change vs veh, RASA1 / RFU, RB1 / Fold change vs veh, RB1 / RFU, PPFIA1 / Fold change vs veh, PPFIA1 / RFU, MAT2A / Fold change vs veh, MAT2A / RFU, CCT5 / Fold change vs veh, CCT5 / RFU, WDR92 / Fold change vs veh, WDR92 / RFU, CUX1 / Fold change vs veh, CUX1 / RFU, TTC7A / Fold change vs veh, TTC7A / RFU, TMEM135 / Fold change vs veh, TMEM135 / RFU, DEPTOR / Fold change vs veh, DEPTOR / RFU, CPM / Fold change vs veh, CPM / RFU, DNAJB6 / Fold change vs veh, DNAJB6 / RFU, CACNA2D3 / Fold change vs veh, CACNA2D3 / RFU, DTX4 / Fold change vs veh, DTX4 / RFU, TFCP2 / Fold change vs veh, TFCP2 / RFU, GMCL1 /// GMCL1P1 / Fold change vs veh, GMCL1 /// GMCL1P1 / RFU, AEBP2 / Fold change vs veh, AEBP2 / RFU, SNHG1 /// SNORD22 /// SNORD25 /// SNORD26 /// SNORD27 /// SNORD28 /// SNORD29 /// SNORD31 / Fold change vs veh, SNHG1 /// SNORD22 /// SNORD25 /// SNORD26 /// SNORD27 /// SNORD28 /// SNORD29 /// SNORD31 / Fold change (Aza/veh), C12orf56 (ProbeSet 11735607_a_at) / Fold change (ACY-1035/veh), C12orf56 (ProbeSet 11735607_a_at) / Fold change (Aza/veh), FGFR1OP (ProbeSet 11751329_s_at) / Fold change (ACY-1035/veh), FGFR1OP (ProbeSet 11751329_s_at) / Fold change (Aza/veh), VPS36 (ProbeSet 11739960_a_at) / Fold change (ACY-1035/veh), VPS36 (ProbeSet 11739960_a_at) / RFU SYPL1 (11715823_x_at) / Fold change /veh SYPL1 (11715823_x_at) / RFU IGFBP7 (11715501_s_at) / Fold change /veh IGFBP7 (11715501_s_at) / RFU REEP3 (11722064_at) / Fold change /veh REEP3 (11722064_at) / RFU IGLL1 (11728026_x_at) / Fold change /veh IGLL1 (11728026_x_at): dose or concentration left out as unconfirmed
Conditions: ProbeSet 11755070_a_at; LIST D

With `Nc1ncn([C@@H]2O[C@H](CO)[C@@H](O)[C@H]2O)c(=O)n1` [azacitidine] the “RFU, CARD8” value was 161.67 RFU.
